Assay results as given in article PMC8296573, “Synthesis and Biological Evaluation of Fingolimod Derivatives as Antibacterial Agents” (ACS Omega, 2021).
Values after ≈ are worked out from the molar mass of the structure shown. Read-outs that look alike come from different tables or passages of the source.

Assays:
S. aureus ATCC 25923 [1] = assay: Antibacterial activity, pre-exposure (planktonic cells and biofilm formation); assay type: cell-based, Staphylococcus aureus; settings: for MIC / inhibition at 5 µM / inhibition at 10 µM / inhibition at 15 µM / inhibition at 25 µM: Staphylococcus aureus, ATCC25923; for inhibition at 5 µM / inhibition at 10 µM / inhibition at 15 µM / inhibition at 25 µM / Average inhibition %, biofilms viability / Average inhibition %, planktonic cells viability: pre-exposure, ± SD
Procedure, shortened: (§1)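 Bacteria and compound were co-incubated from the start for 18 h at 37 °C, 220 rpm. Planktonic cells scored by turbidity plus resazurin reduction; washed biofilms scored by 20 μM resazurin (30, 60, 90 min for S. aureus, A. baumannii, P. aeruginosa) and ethanol-fixed crystal violet staining.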

S. aureus ATCC 25923 [2] = assay: Antibacterial activity, post-exposure on preformed 18-h-old biofilms; assay type: cell-based, Staphylococcus aureus; settings: ± SD; for inhibition at 25 µM / inhibition at 50 µM / inhibition at 100 µM / inhibition at 200 µM: Staphylococcus aureus; for inhibition at 25 µM: ATCC25923, 25 µM; for inhibition at 50 µM: ATCC25923, 50 µM; for inhibition at 100 µM: ATCC25923, 100 µM; for inhibition at 200 µM: ATCC25923, 200 µM
Procedure, shortened: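 Compounds were applied to preformed 18-h biofilms after medium change and left 24 h. Read-outs: planktonic OD plus resazurin fluorescence (20 μM), biofilm metabolic activity by resazurin 30 min at 37 °C, then biomass by crystal violet absorbance at 595 nm after ethanol fixation.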

A. baumannii NCTC 13423 = assay: Antibacterial activity, pre-exposure; assay type: cell-based, Acinetobacter baumannii; settings: for Average inhibition %, biofilms viability / Average inhibition %, planktonic cells viability / inhibition at 10 µM / inhibition at 15 µM / inhibition at 25 µM / inhibition at 50 µM: A. baumannii NCTC 13423, pre-exposure, ± SD; for inhibition at 10 µM / inhibition at 15 µM / inhibition at 25 µM / inhibition at 50 µM / MIC: Acinetobacter baumannii, NCTC13423
Procedure, shortened: as §1

P. aeruginosa ATCC 9027 = assay: Antibacterial activity, pre-exposure; assay type: cell-based, Pseudomonas aeruginosa; settings: for Average inhibition %, biofilms viability / Average inhibition %, planktonic cells viability / inhibition at 50 µM / inhibition at 100 µM / inhibition at 150 µM / inhibition at 200 µM: P. aeruginosa ATCC 9027, pre-exposure, ± SD; for MIC / inhibition at 50 µM / inhibition at 100 µM / inhibition at 150 µM / inhibition at 200 µM: Pseudomonas aeruginosa; for inhibition at 50 µM / inhibition at 100 µM / inhibition at 150 µM / inhibition at 200 µM: ATCC9027
Procedure, shortened: as §1

[3] = 10 µM, read-out: Average inhibition %, biofilms biomass
[4] = 10 µM, read-out: Average inhibition %, planktonic cells turbidity
[5] = 15 µM, read-out: Average inhibition %, biofilms biomass
[6] = 15 µM, read-out: Average inhibition %, planktonic cells turbidity
[7] = 25 µM, read-out: Average inhibition %, biofilms biomass
[8] = 25 µM, read-out: Average inhibition %, planktonic cells turbidity
[9] = read-out: Average inhibition %, biofilms biomass
[10] = read-out: Average inhibition %, planktonic cells turbidity
[11] = 50 µM, read-out: Average inhibition %, biofilms biomass
[12] = 50 µM, read-out: Average inhibition %, planktonic cells turbidity

CCCCCCCCOc1ccc(CCC(N)(CO)CO)cc1 [Compound 48, 2-Amino-2-[4-(octyloxy)phenethyl]propane-1,3-diol]
MIC (S. aureus ATCC 25923 [1]; lowest concentration with no visible growth (>90% inhibition of turbidity and viability of planktonic cells), 18 h, read-out: MIC S. aureus ATCC 25923): 15 to 25 µM (≈ 4.85 to 8.09 µg/mL) | inhibition at 5 µM (S. aureus ATCC 25923 [1]; 5 µM, read-out: Average inhibition %, biofilms biomass): 28.7 ± 25.2% | inhibition at 5 µM (S. aureus ATCC 25923 [1]; 5 µM, read-out: Average inhibition %, planktonic cells turbidity): 13.6 ± 13.1% | inhibition at 10 µM (S. aureus ATCC 25923 [1]; [3]): 31.9 ± 24.6% | inhibition at 10 µM (S. aureus ATCC 25923 [1]; [4]): 40.8 ± 18.5% | inhibition at 15 µM (S. aureus ATCC 25923 [1]; [5]): 53.1 ± 42.8% | inhibition at 15 µM (S. aureus ATCC 25923 [1]; [6]): 47.2 ± 50% | inhibition at 25 µM (S. aureus ATCC 25923 [1]; [7]): 92 ± 5.9% | inhibition at 25 µM (S. aureus ATCC 25923 [1]; [8]): 97.4 ± 2.6% | MIC (S. aureus ATCC 25923 [1]; read-out: MIC (S. aureus)): 15 to 25 µM (≈ 4.85 to 8.09 µg/mL) | Average inhibition %, biofilms viability (S. aureus ATCC 25923 [1]; 5 µM): 22.4 ± 5.4% | Average inhibition %, planktonic cells viability (S. aureus ATCC 25923 [1]; 5 µM): 0 ± 0% | Average inhibition %, biofilms viability (S. aureus ATCC 25923 [1]; 10 µM): 16.7 ± 15% | Average inhibition %, planktonic cells viability (S. aureus ATCC 25923 [1]; 10 µM): 20.3 ± 20.7% | Average inhibition %, biofilms viability (S. aureus ATCC 25923 [1]; 15 µM): 48.8 ± 44.2% | Average inhibition %, planktonic cells viability (S. aureus ATCC 25923 [1]; 15 µM): 36.9 ± 54.3% | Average inhibition %, biofilms viability (S. aureus ATCC 25923 [1]; 25 µM): 99.5 ± 0.8% | Average inhibition %, planktonic cells viability (S. aureus ATCC 25923 [1]; 25 µM): 99.7 ± 0.2% | Average inhibition %, biofilms viability (S. aureus ATCC 25923 [2]; 25 µM): 21 ± 14.6% | Average inhibition %, planktonic cells viability (S. aureus ATCC 25923 [2]; 25 µM): 0.9 ± 1.6% | Average inhibition %, biofilms viability (S. aureus ATCC 25923 [2]; 50 µM): 42.3 ± 5.5% | Average inhibition %, planktonic cells viability (S. aureus ATCC 25923 [2]; 50 µM): 0 ± 0% | Average inhibition %, biofilms viability (S. aureus ATCC 25923 [2]; 100 µM): 52.5 ± 9.2% | Average inhibition %, planktonic cells viability (S. aureus ATCC 25923 [2]; 100 µM): 21.3 ± 18.5% | Average inhibition %, biofilms viability (S. aureus ATCC 25923 [2]; 200 µM): 52 ± 9.4% | Average inhibition %, planktonic cells viability (S. aureus ATCC 25923 [2]; 200 µM): 48.3 ± 23.5% | inhibition at 25 µM (S. aureus ATCC 25923 [2]; [9]): 47.6 ± 0.5% | inhibition at 25 µM (S. aureus ATCC 25923 [2]; [10]): 9.3 ± 10% | inhibition at 50 µM (S. aureus ATCC 25923 [2]; [9]): 57.8 ± 6.5% | inhibition at 50 µM (S. aureus ATCC 25923 [2]; [10]): 12.6 ± 10.9% | inhibition at 100 µM (S. aureus ATCC 25923 [2]; [9]): 65.9 ± 12.5% | inhibition at 100 µM (S. aureus ATCC 25923 [2]; [10]): 31.2 ± 10.9% | inhibition at 200 µM (S. aureus ATCC 25923 [2]; [9]): 72.5 ± 9.8% | inhibition at 200 µM (S. aureus ATCC 25923 [2]; [10]): 40 ± 13.2% | Average inhibition %, biofilms viability (A. baumannii NCTC 13423; 10 µM): 0 ± 0% | Average inhibition %, planktonic cells viability (A. baumannii NCTC 13423; 10 µM): 5.1 ± 0.7% | Average inhibition %, biofilms viability (A. baumannii NCTC 13423; 15 µM): 1.4 ± 1.2% | Average inhibition %, planktonic cells viability (A. baumannii NCTC 13423; 15 µM): 0 ± 0% | Average inhibition %, biofilms viability (A. baumannii NCTC 13423; 25 µM): 68.3 ± 27.4% | Average inhibition %, planktonic cells viability (A. baumannii NCTC 13423; 25 µM): 48.6 ± 48.9% | Average inhibition %, biofilms viability (A. baumannii NCTC 13423; 50 µM): 93.8 ± 1.3% | Average inhibition %, planktonic cells viability (A. baumannii NCTC 13423; 50 µM): 97.8 ± 0.3% | inhibition at 10 µM (A. baumannii NCTC 13423; [3]): 0% | inhibition at 10 µM (A. baumannii NCTC 13423; [4]): 0% | inhibition at 15 µM (A. baumannii NCTC 13423; [5]): 0% | inhibition at 15 µM (A. baumannii NCTC 13423; [6]): 0% | inhibition at 25 µM (A. baumannii NCTC 13423; [7]): 38.9 ± 34.1% | inhibition at 25 µM (A. baumannii NCTC 13423; [8]): 63.2 ± 30.2% | inhibition at 50 µM (A. baumannii NCTC 13423; [11]): 56.9 ± 19.5% | inhibition at 50 µM (A. baumannii NCTC 13423; [12]): 94.4 ± 2.3% | MIC (A. baumannii NCTC 13423; pre-exposure, Inactive = no activity up to 50 μM, > = some inhibition but no MIC reached, read-out: MIC A. baumannii NCTC 13423): > 50 µM | MIC (A. baumannii NCTC 13423; supplementary molecular formula strings sheet, read-out: MIC (A. baumannii)): > 50 µM | Average inhibition %, biofilms viability (P. aeruginosa ATCC 9027; 50 µM): 27.9 ± 25.6% | Average inhibition %, planktonic cells viability (P. aeruginosa ATCC 9027; 50 µM): 28 ± 9% | Average inhibition %, biofilms viability (P. aeruginosa ATCC 9027; 100 µM): 20.3 ± 9.9% | Average inhibition %, planktonic cells viability (P. aeruginosa ATCC 9027; 100 µM): 76.1 ± 19.4% | Average inhibition %, biofilms viability (P. aeruginosa ATCC 9027; 150 µM): 17 ± 12.1% | Average inhibition %, planktonic cells viability (P. aeruginosa ATCC 9027; 150 µM): 88 ± 8.4% | Average inhibition %, biofilms viability (P. aeruginosa ATCC 9027; 200 µM): 12.2 ± 5.8% | Average inhibition %, planktonic cells viability (P. aeruginosa ATCC 9027; 200 µM): 93.5 ± 0.6% | MIC (P. aeruginosa ATCC 9027; ATCC9027, pre-exposure, Inactive = no activity up to 200 μM, > = some inhibition but no MIC reached, read-out: MIC P. aeruginosa ATCC 9027): > 200 µM | MIC (P. aeruginosa ATCC 9027; ATCC9027, supplementary molecular formula strings sheet, read-out: MIC (P. aeruginosa)): > 200 µM | inhibition at 50 µM (P. aeruginosa ATCC 9027; [11]): 14.7 ± 10.8% | inhibition at 50 µM (P. aeruginosa ATCC 9027; [12]): 18.6 ± 7.4% | inhibition at 100 µM (P. aeruginosa ATCC 9027; 100 µM, read-out: Average inhibition %, biofilms biomass): 29.1 ± 19.9% | inhibition at 100 µM (P. aeruginosa ATCC 9027; 100 µM, read-out: Average inhibition %, planktonic cells turbidity): 83.9 ± 2.6% | inhibition at 150 µM (P. aeruginosa ATCC 9027; 150 µM, read-out: Average inhibition %, biofilms biomass): 37.8 ± 2.9% | inhibition at 150 µM (P. aeruginosa ATCC 9027; 150 µM, read-out: Average inhibition %, planktonic cells turbidity): 85.6 ± 3.3% | inhibition at 200 µM (P. aeruginosa ATCC 9027; 200 µM, read-out: Average inhibition %, biofilms biomass): 36.9 ± 6.7% | inhibition at 200 µM (P. aeruginosa ATCC 9027; 200 µM, read-out: Average inhibition %, planktonic cells turbidity): 87.8 ± 4.2%
